The text below walks through data of US20090325877A1, “Combination Product of Receptor Tyrosine Kinase Inhibitor and Fatty Acid Synthase Inhibitor for Treating Cancer” (Wyeth, priority 2008, published 2009).

The test system of assay [1] is SKOV3 ovarian cancer cells. In words: Formazan dye (MTT) in-vitro cell growth assay, SKOV3. The assay is classed as cell-based. As to the method: Cells were plated at 0.5−5×10^3/well in 96-well plates. After adhesion, media ±drugs alone or in combination were added. Cell numbers were estimated after 3-5 days by using a colorimetric formazan dye assay (Biomedica, Vienna, Austria). […] Statistical analysis of data from drug combination treatment experiments was performed using one-factorial ANOVA followed by Scheffe-test.
Yellow MTT (3-(4,5-Dimethylthiazol-2-yl)-2,5-diphenyltetrazolium bromide, a tetrazole) is reduced to purple formazan in the mitochondria of living cells (see Mosmann, T., J. Immunol. Methods, 65(1-2): 55-63, 1983).

Another assay concerns FASN mRNA. In words: FASN mRNA expression by qRT-PCR in A2780 cells. The assay is classed as cell-based, human. The source says:
(§1) RNA was extracted from the cells using TRI-REAGENT™ (Molecular Research Center, Cincinnati, Ohio) and subjected to reverse transcription—polymerase chain reaction (“RT-PCR”) using the TITAN ONE TUBE RT-PCR KIT™ system (Hoffmann-La Roche). Primers were: EGFR: 5′-[…]-3′ (SEQ ID NO:1) (forward, E1S) 5′-[…]-3′ (SEQ ID NO:2) (reverse, E1A); ErbB-2: 5′-[…]-3′ (SEQ ID NO:3) (forward, E2S2), 5′-[…]-3′ (SEQ ID NO:4) (reverse, E2A2); GAPDH: 5′-[…]-3′ (SEQ ID NO:5) (forward, GAPDH3S), 5′-[…]-3′ (SEQ ID NO:6) (reverse, GAPDH3A). Conditions for reverse transcription and amplification of the EGFR coding sequence were: 50° C., 30 minutes; 94° C., 2 minutes; 10 cycles (94° C., 30 seconds; 64.9° C., 30 seconds; 68° C., 90 seconds); 30 cycles (94° C., 30 seconds; 64.9° C., 30 seconds; 68° C., 90 seconds +5 seconds autoextension) and 68° C., 7 minutes. Conditions for ErbB2 and GAPDH were: 50° C., 30 minutes; 94° C., 2 minutes; 10 cycles (94° C., 30 seconds; 51° C., 30 seconds; 68° C., 45 seconds); 25 cycles (94° C., 30 seconds; 51° C., 30 seconds; 68° C., 45 seconds +5 seconds autoextension) and 68° C., 7 minutes. DNA products had the following sizes: EGFR: 1452 bp, ErbB2: 900 bp, GAPDH: 488 bp. Fragments were electrophoresed and stained with ethidium bromide.
(§2) Quantitative RT-PCR (“qRT-PCR”) was performed in the ABI PRISM 7000™ Sequence Detector (Applied Biosystems, Foster City, Calif.) using human EGFR, ErbB2, and FASN TaqMan® Gene Expression Assay systems (Applied Biosystems; Assay IDs: Hs00193306_m1, Hs00170433_m1, Hs00188012_m1) according to the manufacturer's instructions. β-actin and GAPDH (VIC™ and FAM labeled pre-developed TaqMan® Assay reagents, Applied Biosystems) were used as endogenous controls. EGFR, ErbB2, and FASN mRNA expression were calculated as described previously (Grunt, ibid).
On the technique in general: Quantitative PCR measures a nucleic acid by following its amplification.

For a further assay, the system named is FASN protein. In words: FASN protein level by Western blotting in A2780 cells. The assay is classed as cell-based. For orientation: Immunoblotting shows a protein as a band on a membrane.
The next assay deals with EGFR mRNA. As to the kind of experiment: EGFR mRNA by qRT-PCR in SKBR3 breast cancer cells. The conditions noted are these: Homo sapiens, SK-BR-3, read-out: IC50, down-regulation of EGFR mRNA. The assay is classed as cell-based.
Text: (§3) RNA was extracted from the cells using TRI-REAGENT™ (Molecular Research Center, Cincinnati, Ohio) and subjected to reverse transcription—polymerase chain reaction (“RT-PCR”) using the TITAN ONE TUBE RT-PCR KIT™ system (Hoffmann-La Roche). Primers were: EGFR: 5′-[…]-3′ (SEQ ID NO:1) (forward, E1S) 5′-[…]-3′ (SEQ ID NO:2) (reverse, E1A); ErbB-2: 5′-[…]-3′ (SEQ ID NO:3) (forward, E2S2), 5′-[…]-3′ (SEQ ID NO:4) (reverse, E2A2); GAPDH: 5′-[…]-3′ (SEQ ID NO:5) (forward, GAPDH3S), 5′-[…]-3′ (SEQ ID NO:6) (reverse, GAPDH3A). Conditions for reverse transcription and amplification of the EGFR coding sequence were: 50° C., 30 minutes; 94° C., 2 minutes; 10 cycles (94° C., 30 seconds; 64.9° C., 30 seconds; 68° C., 90 seconds); 30 cycles (94° C., 30 seconds; 64.9° C., 30 seconds; 68° C., 90 seconds +5 seconds autoextension) and 68° C., 7 minutes. […]
as §2

Assay [2] deals with ErbB2 mRNA. As to the kind of experiment: ErbB2 mRNA by RT-PCR and qRT-PCR in A2780 cells. The assay is classed as cell-based, human.
Text: as §1, §2

For the next assay, the system named is ErbB2 protein. In words: Total and phosphorylated ErbB2 protein by Western blot in A2780 cells. The assay is classed as cell-based. As to the method:
(§4) Cells plated in culture media containing 5% fetal calf serum at a density of 2.6×10^5 (SKOV3) or 6×10^5 (A2780) in 60 mm dishes (Corning, Corning, N.Y.) were treated with FASN inhibitor C75, with small-molecule ErbB RTK inhibitors (RTKIs), with the MEK1/2 antagonist U0126 or with the PI3K inhibitor LY294002 for the indicated times and at various concentrations. In some experiments cells were stimulated for 5 or 10 min with 100 ng/ml EGF (Sigma) before lysis in RIPA buffer (Grunt et al., Biochem Biophys Res Commun 329:1253-1259, 2005). Proteins (20 μg/lane) were subjected to SDS-PAGE, blotted onto PVDF membranes and immunostained (see Grunt, ibid) using the following antibodies: 2 μg/ml goat anti-pEGFR(Tyr1173) (sc-12351), 1 μg/ml rabbit anti-ErbB2 (C-18) (sc-284), 1 μg/ml rabbit anti-pErbB2(Tyr1248) (sc-12352-R) (all from Santa Cruz Biotechnology Inc., Santa Cruz, Calif.), rabbit anti-EGFR 1:1,000 (2232), rabbit anti-AKT 1:1,000 (9272), rabbit anti-pAKT(Ser473) 1:1,000 (9271), rabbit anti-pAKT(Thr308) 1:1,000 (9275), rabbit anti-pERK1/2(Thr202/Tyr204) 1:1,000 (9101) (all from Cell Signaling Technology), rabbit anti-ERK1/2 1:3,000 (06-182, Upstate Biotechnology Inc., Lake Placid, N.Y.), 0.5 μg/ml mouse monoclonal anti-FASN (610963, BD Biosciences, San Jose, Calif.), or 0.67 μg/ml goat anti-human actin (1-19, sc-1616, Santa Cruz Biotechnology). Secondary antibodies were peroxidase-tagged donkey-anti-rabbit IgG (V795A, Promega, Madison, Wis.) or donkey-anti-goat IgG (sc-2020, Santa Cruz Biotechnology) at 1:15,000, respectively, or chicken anti-mouse IgG (sc-2954, Santa Cruz Biotechnology) at 1:10,000. Detection was performed by enhanced chemiluminescence.

Assay [3] concerns ErbB2 mRNA. In words: ErbB2 mRNA by qRT-PCR in SKBR3 breast cancer cells. The assay is classed as cell-based, human.
Text: as §3, §2

A further assay relates to AKT. In words: AKT phosphorylation and expression by Western blotting in A2780 and SKOV3 cells. The assay is classed as cell-based. As for the experimental part: as §4, with “Secondary antibodies were peroxidase-tagged donkey-anti-rabbit IgG (V795A, Promega, Madison, Wis.) or donkey-anti-goat IgG (sc-2020, Santa Cruz Biotechnology) at 1:15,000, respectively, or chicken anti-mouse IgG (sc-2954, Santa Cruz Biotechnology) at 1:10,000. Detection was performed by enhanced chemiluminescence.” left out

For the next assay, the system named is ERK1/2. In words: ERK1/2 phosphorylation and expression by Western blotting in A2780 and SKOV3 cells. The assay is classed as cell-based. As for the experimental part: as §4, with “Secondary antibodies were peroxidase-tagged donkey-anti-rabbit IgG (V795A, Promega, Madison, Wis.) or donkey-anti-goat IgG (sc-2020, Santa Cruz Biotechnology) at 1:15,000, respectively, or chicken anti-mouse IgG (sc-2954, Santa Cruz Biotechnology) at 1:10,000. Detection was performed by enhanced chemiluminescence.” left out

The mark [4] stands for this setting: b102: within three days, pelitinib at doses as low as 3 μM.

In brackets after ≈: the same amount, converted by molar mass. Entries after “also recorded” stand apart in the source; their conditions may differ.

Usually inhibition stands for the drop in the measured response relative to a control, in per cent. The IC50 is the point on the concentration scale where inhibition reaches its midpoint. As to `C=C1C(=O)OC(CCCCCCCC)C1C(=O)O` (centres unmarked) [C75, tetrahydro-3-methylene-2-oxo-5-n-octyl-4-furancarboxylic acid], in assay [1] (Homo sapiens, SK-OV-3, 10 μg/ml C75 on its own), the inhibition at 10 µg/mL fell in the range of 50 to 55%. Moreover, the “in vitro growth inhibition (in words)” value in assay [1] (MTT assay, single drug) is given as “growth inhibitory activity”. Moreover, the IC50 turned out to be 5.25 µg/mL (≈ 20.6 µM) in the assay with FASN mRNA (Homo sapiens, 72 h, after 3 days, qRT-PCR, read-out: IC50, down-regulation of FASN mRNA expression); 4.15 µg/mL (≈ 16.3 µM) in the assay with FASN protein (Homo sapiens, read-out: IC50, down-regulation of FASN protein); 7.5 µg/mL (≈ 29.5 µM) with EGFR mRNA. Further, in the assay on FASN mRNA (at 7 μg/ml), the “IT50 (time of exposure after which a 50% inhibition is obtained), FASN mRNA” value worked out at 21.5 h. The “FASN mRNA expression, effect in words” value with FASN mRNA (setting [4]) is “shut-down”. For the same compound, in the assay with FASN protein, the “IT50, FASN protein” value amounted to 40 h. Also, the “FASN protein expression, effect in words” value in the assay on FASN protein (setting [4]) was “shut-down”. Besides, the results for the “ErbB2 mRNA, effect in words” value in the assay with ErbB2 mRNA [2] and with ErbB2 mRNA [3] were “not affected; also recorded: failed to diminish” and “dose-dependent decline; also recorded: dose-dependent down-regulation”, respectively. Moreover, in the assay with ErbB2 protein, the “phosphorylated ErbB2 (pErbB2), effect in words” value is recorded as “downregulates; also recorded: deprivation”. In addition, the “total ErbB2 protein, effect in words” value in the assay on ErbB2 protein is on record as “downregulates; also recorded: deprivation”. In addition, the “phosphorylation of AKT (Ser473, Thr308), effect in words” value with AKT is “dose-dependently inhibits”. For the same compound, the “total AKT protein level, effect in words” value in the assay with AKT (C75 at high concentrations) is on record as “slightly affects”. The “pERK1/2 levels, effect in words” value with ERK1/2 is reported as “dose-dependently increase”. Moreover, the “total ERK1/2 levels, effect in words” value in the assay on ERK1/2 is given as “concurrently decline”.
